Measured values reported in patent US4510144A, “Methods of imparting immunomodulating activity with dihydrothiazolo purine derivatives” (Newport Pharmaceuticals International, priority 1982, dated 1985).

What was measured:
[1] = test system: Herpes Simplex Virus Type I; assay: inhibition of Herpes Simplex Virus replication; format: cell-based; conditions: read-out: % inhibition of viral growth
Influenza A/USSR 90 = assay: inhibition of influenza virus replication (hemadsorption assay); format: cell-based; conditions: read-out: % inhibition of viral growth
Procedure: The ability of NPT 16416 to inhibit influenza virus replication was measured using the hemadsorption assay.

macrophages = assay: lymphokine (macrophage mitogenic factor, MMF) induced macrophage proliferation in vitro; format: cell-based
Description: (2) Lymphokine (macrophage mitogenic factor, MMF) induced macrophage proliferation (in vitro
2. NPT 16416 is also capable of augmenting the lymphokine (MMF) induced proliferation of macrophages causing a 70% enhancement of macrophage proliferation.

[2] = test system: antibody production to sheep red blood cells (SRBC); assay: antigen (SRBC) dependent antibody synthesis in vivo (IgM plaques); set-up: species or system Balb/C mice; conditions: for #Ig M plaques (x ± S.E.): saline control 21 ± 1.1; for % change from control, Ig M plaques: Table VIII; for % change from control, antibody response to SRBC: Table X, *P ≤ 0.001 where starred
Procedure: (3) Antigen (sheep red blood cell, SRBC) dependent antibody synthesis (in vivo)
There is set forth below the standard procedure which should be modified according to the solubility and other properties of the particular compound tested.
1. A solution containing 500 μg/ml NPT is prepared by adding a preweighed amount of the drup powder to sterile BPS (phosphate buffered saline) and sonicating the solution for 30 minutes.
1. NPT drug solution is made by dissolving 500 μg NPT per mil PBS.
1. A 1.4% suspension of agarose in PBS (7 g in 500 ml) is autoclaved for 15 min.
1. Mice are immunized as follows: sheep blood (sheep #23) is received weekly from Hyland labs. It is asceptically collected in two volumes of Alseviers to one volume of blood.
6. The cell count is determined and the stock solution is diluted to 4×10^7 cells/ml. This final suspension is used for immunization.
7. Each mouse is immunized by i.v. injection into the lateral tail vein (warmed in a 50° C. water bath for veinous dilation) with 0.1 ml SRBC (sheep red blood cell) suspensions; the final concentration of SRBC's is 4×10^6 per mouse.
1. Mice are treated by i.p. injection on days […], 1, 2, and 3. A syringe (1 cc) is fitted with a one-half inch, 26 gauge needle. The needle is introduced at a 45° angle along the right side of the linea alba. A 0.2 ml volume is given to both drug and control treated groups.
2. Drug groups are given 0.2 ml of a desired concentration NPT solution which, for a 20 g mouse, is […].
1. Spleens are removed asceptically and placed individually in Falcon #2025 tissue culture tubes containing 3 ml MEM. The tubes are then stored on ice.
2. Spleens are homogenized in the same tube with a teflon pestle attached to a G. K. Heller variable speed reversible motor connected with a G. K. Heller GT-21 motor controller setting #6.
6. The cell count is obtained and the stock suspension is diluted to 1×10^7 cells/ml. The Coulter counter threshhold is set at 10. Red cells are lysed with three drops of Zap isoton.
1. Thirty-five hundredths gram agarose and 0.53 grams MEM powder are placed into an Erlenmeyer flask. Fifty ml of distilled H2 O is then added to the flask.
1. Five ml sheep blood (same batch as used for immunization) is washed three times in PBS using an IEC Clinical Standard Centrifuge, speed #4 (2800 RPM) for 10 min.
1. Agar plates are removed from refrigerator and allowed to warm to room temperature. They are labeled in triplicate for each experimental group.
2. Agar-filled tubes are removed from the water bath. One-tenth of the 10% SRBC's and 0.1 ml spleen cell suspension are added to each agar tube. The tubes are agitated on a Vortex mixer.
3. The contents of the tubes are poured immediately into agar base plates and swirled until a smooth layer is formed. The plates are placed on a level surface until the agar solidifies.
4. The plates are incubated at 37° C. in a humidified atmosphere of 5% CO2 and 95% air for 90 min.
6. Plates are removed from incubator and 1 ml of the diluted complement is added to each plate.
7. Plates are then incubated another 30-45 minutes at 37° C. Plates are then removed from incubator and counted using oblique light.

**Q.** With `Oc1ncnc2c1nc1n2CCS1` [NPT 16416, 3-hydroxy-7,8-dihydrothiazolo-[3,2e]-purine] as the compound, how does the inhibition at 37.5 µg/mL ([1]; 37.5 μg/ml) read?
**A.** 33%

**Q.** What about the inhibition at 75 µg/mL ([1]; 75 μg/ml) of the same compound?
**A.** 61%

**Q.** And the inhibition at 150 µg/mL ([1]; 150 μg/ml)?
**A.** 65%

**Q.** What about the inhibition at 0.1 µg/mL (Influenza A/USSR 90; 0.1 μg/ml) of the same compound?
**A.** 54%

**Q.** And the inhibition at 0.5 µg/mL (Influenza A/USSR 90; 0.5 μg/ml)?
**A.** 59%

**Q.** What about the inhibition at 75 µg/mL (Influenza A/USSR 90; 75 μg/ml) of the same compound?
**A.** 78%

**Q.** And the inhibition at 0.05 µg/mL (Influenza A/USSR 90; NPT 16416 0.05 μg/ml)?
**A.** 48%

**Q.** And the “enhancement of lymphokine (MMF) induced macrophage proliferation” value (macrophages)?
**A.** 70%

**Q.** What about the “#Ig M plaques (x ± S.E.)” value ([2]; 0.05 mg/kg i.p.) of the same compound?
**A.** 39 ± 3.34

**Q.** What about the “#Ig M plaques (x ± S.E.)” value ([2]; 0.5 mg/kg i.p.) of the same compound?
**A.** 35 ± 2.06

**Q.** What about the “#Ig M plaques (x ± S.E.)” value ([2]; 5.0 mg/kg i.p.) of the same compound?
**A.** 9 ± 0.37

**Q.** What about the “effect on antibody production in vivo, in words” value ([2]; SRBC immunized mice) of the same compound?
**A.** enhancement of production of specific antibodies in vivo

**Q.** And the “% change from control, Ig M plaques” value ([2]; 0.05 mg/kg i.p.)?
**A.** +88%

**Q.** And the “% change from control, Ig M plaques” value ([2]; 0.5 mg/kg i.p.)?
**A.** +66%

**Q.** And the “% change from control, Ig M plaques” value ([2]; 5.0 mg/kg i.p.)?
**A.** -58%

**Q.** And the “% change from control, antibody response to SRBC” value ([2]; 0.5 mg/kg)?
**A.** +66%

**Q.** And the “% change from control, antibody response to SRBC” value ([2]; 5.0 mg/kg, NPT 16485 N.S.)?
**A.** -80%

**Q.** And the “enhancement of antibody production to SRBC” value ([2]; mice, 0.05 mg/kg)?
**A.** 88-226%
